Reference: PubChem BioAssay AID1259407 (Chemical Carcinogenesis Research Information System (CCRIS), 2018)
Calls of active or inactive are those of the source. How the calls were made is not given here.

Test system: CCRIS mutagenicity, Ames/micronucleus/aberration tests
Assay: CCRIS mutagenicity studies

SMILES: O=NN1CCCCC1
- mutagenic call (Test System: AMES SALMONELLA TYPHIMURIUM, Strain/Indicator: TA98, Metabolic Activation: HAMSTER, LIVER, S-9, AROCLOR 1254 (10%), Method: PREINCUBATION): active; positive
- mutagenic call (Test System: AMES SALMONELLA TYPHIMURIUM, Strain/Indicator: TA98, Metabolic Activation: HAMSTER, LIVER, S-9, AROCLOR 1254 (10%), Method: STANDARD PLATE): active; positive
- mutagenic call (Test System: AMES SALMONELLA TYPHIMURIUM, Strain/Indicator: TA98, Metabolic Activation: HAMSTER, LIVER, S-9, AROCLOR 1254, Method: PREINCUBATION): active; positive
- mutagenic call (Test System: AMES SALMONELLA TYPHIMURIUM, Strain/Indicator: TA98, Metabolic Activation: HAMSTER, LIVER, S-9, AROCLOR 1254, Method: STANDARD PLATE): active; positive
- mutagenic call (Test System: AMES SALMONELLA TYPHIMURIUM, Strain/Indicator: TA98, Metabolic Activation: NONE, Method: PREINCUBATION): inactive; negative
- mutagenic call (Test System: AMES SALMONELLA TYPHIMURIUM, Strain/Indicator: TA98, Metabolic Activation: NONE, Method: STANDARD PLATE): inactive; negative
- mutagenic call (Test System: AMES SALMONELLA TYPHIMURIUM, Strain/Indicator: TA98, Metabolic Activation: RAT, LIVER, S-9, AROCLOR 1254 (10%), Method: PREINCUBATION): inactive; negative
- mutagenic call (Test System: AMES SALMONELLA TYPHIMURIUM, Strain/Indicator: TA98, Metabolic Activation: RAT, LIVER, S-9, AROCLOR 1254 (10%), Method: STANDARD PLATE): inactive; negative
- mutagenic call (Test System: AMES SALMONELLA TYPHIMURIUM, Strain/Indicator: TA98, Metabolic Activation: RAT, LIVER, S-9, AROCLOR 1254, Method: PREINCUBATION): inactive; negative
- mutagenic call (Test System: AMES SALMONELLA TYPHIMURIUM, Strain/Indicator: TA98, Metabolic Activation: RAT, LIVER, S-9, AROCLOR 1254, Method: STANDARD PLATE): inactive; negative
- mutagenic call (Test System: AMES SALMONELLA TYPHIMURIUM, Strain/Indicator: TA100, Metabolic Activation: HAMSTER, LIVER, S-9, AROCLOR 1254 (10%), Method: PREINCUBATION): active; positive
- mutagenic call (Test System: AMES SALMONELLA TYPHIMURIUM, Strain/Indicator: TA100, Metabolic Activation: HAMSTER, LIVER, S-9, AROCLOR 1254 (10%), Method: STANDARD PLATE): active; positive
- mutagenic call (Test System: AMES SALMONELLA TYPHIMURIUM, Strain/Indicator: TA100, Metabolic Activation: HAMSTER, LIVER, S-9, AROCLOR 1254, Method: PREINCUBATION): active; positive
- mutagenic call (Test System: AMES SALMONELLA TYPHIMURIUM, Strain/Indicator: TA100, Metabolic Activation: HAMSTER, LIVER, S-9, Method: PREINCUBATION): active; positive
- mutagenic call (Test System: AMES SALMONELLA TYPHIMURIUM, Strain/Indicator: TA100, Metabolic Activation: HUMAN, LIVER, S-9, Method: PREINCUBATION): active; positive
- mutagenic call (Test System: AMES SALMONELLA TYPHIMURIUM, Strain/Indicator: TA100, Metabolic Activation: MOUSE, LIVER, S-9, Method: PREINCUBATION): active; positive
- mutagenic call (Test System: AMES SALMONELLA TYPHIMURIUM, Strain/Indicator: TA100, Metabolic Activation: NONE, Method: PREINCUBATION): inactive; negative
- mutagenic call (Test System: AMES SALMONELLA TYPHIMURIUM, Strain/Indicator: TA100, Metabolic Activation: NONE, Method: STANDARD PLATE): inactive; negative
- mutagenic call (Test System: AMES SALMONELLA TYPHIMURIUM, Strain/Indicator: TA100, Metabolic Activation: RABBIT, LIVER, S-9, Method: STANDARD PLATE): inactive; negative
- mutagenic call (Test System: AMES SALMONELLA TYPHIMURIUM, Strain/Indicator: TA100, Metabolic Activation: RABBIT, LUNG, S-9, Method: STANDARD PLATE): active; positive
- mutagenic call (Test System: AMES SALMONELLA TYPHIMURIUM, Strain/Indicator: TA100, Metabolic Activation: RABBIT, NASAL, S-9, Method: STANDARD PLATE): inactive; negative
- mutagenic call (Test System: AMES SALMONELLA TYPHIMURIUM, Strain/Indicator: TA100, Metabolic Activation: RAT, LIVER, S-9, AROCLOR 1254 (10%), Method: PREINCUBATION): active; positive
- mutagenic call (Test System: AMES SALMONELLA TYPHIMURIUM, Strain/Indicator: TA100, Metabolic Activation: RAT, LIVER, S-9, AROCLOR 1254 (10%), Method: STANDARD PLATE): inactive; negative
- mutagenic call (Test System: AMES SALMONELLA TYPHIMURIUM, Strain/Indicator: TA100, Metabolic Activation: RAT, LIVER, S-9, AROCLOR 1254, Method: PREINCUBATION): active; positive
- mutagenic call (Test System: AMES SALMONELLA TYPHIMURIUM, Strain/Indicator: TA100, Metabolic Activation: RAT, LIVER, S-9, AROCLOR 1254, Method: STANDARD PLATE): inactive; negative
- mutagenic call (Test System: AMES SALMONELLA TYPHIMURIUM, Strain/Indicator: TA100, Metabolic Activation: RAT, LUNG, S-9, Method: STANDARD PLATE): inactive; negative
- mutagenic call (Test System: AMES SALMONELLA TYPHIMURIUM, Strain/Indicator: TA100, Metabolic Activation: RAT, NASAL, S-9, Method: STANDARD PLATE): active; positive
- mutagenic call (Test System: AMES SALMONELLA TYPHIMURIUM, Strain/Indicator: TA100, Metabolic Activation: TOBACCO CELLS, Method: PREINCUBATION): inactive; negative
- mutagenic call (Test System: AMES SALMONELLA TYPHIMURIUM, Strain/Indicator: TA104, Metabolic Activation: RAT, LIVER, S-9, AROCLOR 1254, Method: PREINCUBATION): active; positive
- mutagenic call (Test System: AMES SALMONELLA TYPHIMURIUM, Strain/Indicator: TA1530, Metabolic Activation: RAT LIVER, CYTOSOL, ISONIAZID, Method: PREINCUBATION): inactive; negative
- mutagenic call (Test System: AMES SALMONELLA TYPHIMURIUM, Strain/Indicator: TA1530, Metabolic Activation: RAT LIVER, MICROSOMES, ISONIAZID, Method: PREINCUBATION): active; positive
- mutagenic call (Test System: AMES SALMONELLA TYPHIMURIUM, Strain/Indicator: TA1530, Metabolic Activation: RAT, LIVER, S-9, Method: STANDARD PLATE): active; positive
- mutagenic call (Test System: AMES SALMONELLA TYPHIMURIUM, Strain/Indicator: TA1535, Metabolic Activation: HAMSTER, LIVER, S-9, AROCLOR 1254 (10%), Method: PREINCUBATION): active; positive
- mutagenic call (Test System: AMES SALMONELLA TYPHIMURIUM, Strain/Indicator: TA1535, Metabolic Activation: HAMSTER, LIVER, S-9, AROCLOR 1254, Method: PREINCUBATION): active; positive
- mutagenic call (Test System: AMES SALMONELLA TYPHIMURIUM, Strain/Indicator: TA1535, Metabolic Activation: NONE, Method: PREINCUBATION): inactive; negative
- mutagenic call (Test System: AMES SALMONELLA TYPHIMURIUM, Strain/Indicator: TA1535, Metabolic Activation: RAT, LIVER, S-9, AROCLOR 1254 (10%), Method: PREINCUBATION): active; positive
- mutagenic call (Test System: AMES SALMONELLA TYPHIMURIUM, Strain/Indicator: TA1535, Metabolic Activation: RAT, LIVER, S-9, AROCLOR 1254, Method: PREINCUBATION): active; positive
- mutagenic call (Test System: AMES SALMONELLA TYPHIMURIUM, Strain/Indicator: TA1535, Metabolic Activation: RAT, LIVER, S-9, Method: STANDARD PLATE): active; positive
- mutagenic call (Test System: AMES SALMONELLA TYPHIMURIUM, Strain/Indicator: TA1537, Metabolic Activation: HAMSTER, LIVER, S-9, AROCLOR 1254 (10%), Method: PREINCUBATION): inactive; negative
- mutagenic call (Test System: AMES SALMONELLA TYPHIMURIUM, Strain/Indicator: TA1537, Metabolic Activation: HAMSTER, LIVER, S-9, AROCLOR 1254, Method: PREINCUBATION): inactive; negative
- mutagenic call (Test System: AMES SALMONELLA TYPHIMURIUM, Strain/Indicator: TA1537, Metabolic Activation: NONE, Method: PREINCUBATION): inactive; negative
- mutagenic call (Test System: AMES SALMONELLA TYPHIMURIUM, Strain/Indicator: TA1537, Metabolic Activation: RAT, LIVER, S-9, AROCLOR 1254 (10%), Method: PREINCUBATION): inactive; negative
- mutagenic call (Test System: AMES SALMONELLA TYPHIMURIUM, Strain/Indicator: TA1537, Metabolic Activation: RAT, LIVER, S-9, AROCLOR 1254, Method: PREINCUBATION): inactive; negative
- mutagenic call (Test System: AMES SALMONELLA TYPHIMURIUM, Strain/Indicator: TA1538, Metabolic Activation: HAMSTER, LIVER, S-9, AROCLOR 1254 (10%), Method: PREINCUBATION): inactive; negative
- mutagenic call (Test System: AMES SALMONELLA TYPHIMURIUM, Strain/Indicator: TA1538, Metabolic Activation: HAMSTER, LIVER, S-9, AROCLOR 1254, Method: PREINCUBATION): inactive; negative
- mutagenic call (Test System: AMES SALMONELLA TYPHIMURIUM, Strain/Indicator: TA1538, Metabolic Activation: NONE, Method: PREINCUBATION): inactive; negative
- mutagenic call (Test System: AMES SALMONELLA TYPHIMURIUM, Strain/Indicator: TA1538, Metabolic Activation: RAT, LIVER, S-9, AROCLOR 1254 (10%), Method: PREINCUBATION): inactive; negative
- mutagenic call (Test System: AMES SALMONELLA TYPHIMURIUM, Strain/Indicator: TA1538, Metabolic Activation: RAT, LIVER, S-9, AROCLOR 1254, Method: PREINCUBATION): inactive; negative
- mutagenic call (Test System: AMES SALMONELLA TYPHIMURIUM, Strain/Indicator: TA1975, Metabolic Activation: RAT, LIVER, S-9, AROCLOR 1254, Method: PREINCUBATION): active; positive
- mutagenic call (Test System: UDS RODENT CELLS, Strain/Indicator: THY INCORP (NON-S-PHASE), Metabolic Activation: NONE, Method: LIQUID SCINTILLATION COUNTING): inactive; negative
- mutagenic call (Test System: UDS RODENT CELLS, Strain/Indicator: THY INCORP (NON-S-PHASE), Metabolic Activation: RAT, LIVER, S-9, SODIUM PHENOBARBITAL, Method: LIQUID SCINTILLATION COUNTING): active; positive
